Assay results as given in patent US10118893B2, “Method of making complex nano particles and using the same to reduce cell viability” (Umm Al-Qura University, priority 2014, dated 2018).

Key:
HELA = assay: Cytotoxic activity on human tumor cell line HELA; assay type: cell-based; settings: dose to reduce survival to 50%
Experimental: (§1) Olylammonium hydrogen selenites hydrogen selenite with its cobalt and platinum complexes were investigated as potential selective, anticancer prodrugs. They were tested by using Ehrlich Acites Carcinoma (EAC) as a model system of mice cell tumor. These compounds were also Tested in vitro on human […] monolayer tumor cell lines: MCF7 (Breast carcinoma), HEPG2 (liver carcenoma), U 251 ([…]) and HCT116 (colon carcinoma).
(§2) The results of the cytotoxic activity on human tumor cell lines were determined according to the dose values of drug exposure for cell lines to reduce survival to 50% (Ic50). The experimental results recorded in Table (3).

HCT116 (colon carcinoma) = assay: Cytotoxic activity on human tumor cell line HCT116; assay type: cell-based; settings: dose to reduce survival to 50%
Experimental: as §1, §2

HEPG2 (liver carcenoma) = assay: Cytotoxic activity on human tumor cell line HEPG2; assay type: cell-based; settings: dose to reduce survival to 50%
Experimental: as §1, §2

MCF7 (Breast carcinoma) = assay: Cytotoxic activity on human tumor cell line MCF7; assay type: cell-based; settings: dose to reduce survival to 50%
Experimental: as §1, §2

[1] = Critical micelle concentration (CMC) and surface parameters of the surfactants; assay type: physicochemical; set-up: PC20: unit not given here
Description: That fact could be explained from the unique property of the metal complexes in water. That is the complexes retain its unity in their solutions, which increased their volume in the aqueous media and then repulsion is occurred between the hydrophobic chain and water molecules. […] The efficiency “PC20” increase with increasing molar ratio of methylene units. These due to the fact that the efficiency of adsorption at interfaces increase linearly with increase in the carbon atoms in hydrophobic group. In case of the prepared parent cationic surfactants by increasing the number methylene units Maximum surface excess Γmax increases, this due to migration of molecules to the water-air interface. The consequence increase of Γmax leads to crowdiness occurred at the interface which causing decrease in Minimum area per molecule Amin values. That is due to the minimum surface area decrease with increasing the hydrophobic chain length of the synthesized surfactant molecules. The standard free energies of micellization ΔG° mic and adsorption ΔG° ads values are always negative indicating the spontaneously of these two processes but there is more increase in negativity of ΔG° ads rather than those of micellization indicating the tendency of the molecules to be adsorbed at the interface.

[2] = system: sulphur reducing bacteria; assay: Antibacterial activity against sulphur reducing bacteria, inhibition zone; assay type: cell-based
Description: The results of the synthesized cationic surfactants against sulphur reducing bacteria recorded in Table 4.

[3] = system: Ehrlich ascites carcinoma (EAC) cells; assay: Antitumor activity using Ehrlich ascites carcinoma (EAC), in vitro percentage of nonviable cells; assay type: cell-based, mice; settings: NVC %
Experimental: as §1
Ehrlich ascites carcinoma cells as a model system was based on the finding that it is excellent tool for studying the biological behavior of malignant tumors and drug action with cells. A line of Ehrlich ascites carcinoma (EAC) which used in the present study had been kindly supplied from National Cancer Institute, Cairo, Egypt, and maintained in female Swiss albino mice through weekly […] transplantation of 2.5×10^6 tumor cells/mouse. EAC cells were obtained by needle aspiration with aseptic condition. The ascetic fluid was diluted with sterile saline so that 0.1 ml contains 2.5×10^6 cells counted microscopically using a haemocytometer. In vitro studying of these compounds antitumor activity was determined according to the percentage of nonviable cells (NVC %) which was calculated by the following equation NVC %=[number of NVC/total number of cells][…].

CCCCCCCC/C=C\CCCCCCCCN.O=[Se](O)O [IIa, olylammonium hydrogen selenite]
HELA (IC50) (HELA): does not reach to Ic50
HCT116 (IC50) (HCT116 (colon carcinoma)): does not reach to Ic50
HEPG2 (IC50) (HEPG2 (liver carcenoma)): does not reach to Ic50
MCF7 (IC50) (MCF7 (Breast carcinoma)): does not reach to Ic50
Δ Gads/Amin [1]: −46.8
ΠCMC [1]: 39 mN/m
CMC × 10−3 ([1]; critical micelle concentration, values × 10−3): 1.3
PC20 ([1]; efficiency): 3.8
Γmax × 10−11 ([1]; maximum surface excess, values × 10−11): 10.6 Mole/cm^2
A min ([1]; minimum area per molecule): 1.6 nm2
Δ Gads ([1]; standard free energy of adsorption): −67.7
Δ Gmic ([1]; standard free energy of micellization): −34.1
γCMC ([1]; surface tension at CMC): 33 mN/m
Inhibition zone diameter [2]: 25 mm/mg sample
Percent nonviable cells ([3]; Conc. 25 μg/ml): 10%
Percent nonviable cells ([3]; Conc. 50 μg/ml): 20%
Percent nonviable cells ([3]; Conc. 100 μg/ml): 40%
